This is an account of results in ChEMBL document CHEMBL3045927, “Synthesis of 4-methyl-1,2,3-thiadiazole derivatives via Ugi reaction and their biological activities” (2010).

Type in all cases: functional
In one test the test system is Pyricularia grisea. In words: Fungicidal activity against Magnaporthe grisea at 50 ug/ml by growth inhibition method. On the set-up: scale not given: the % may be the effect or the level left.
Another test has as its system Thanatephorus cucumeris. In words: Fungicidal activity against Thanatephorus cucumeris at 50 ug/ml by growth inhibition method. The arrangement: scale not given: the % may be the effect or the level left.
The next test deals with Fusarium graminearum. In words: Fungicidal activity against Fusarium graminearum at 50 ug/ml by growth inhibition method. On the set-up: scale not given: the % may be the effect or the level left.
The subject of test [1] is Botryosphaeria berengeriana. In words: Fungicidal activity against Botryosphaeria berengeriana at 50 ug/ml by growth inhibition method. On the set-up: scale not given: the % may be the effect or the level left.
The next test deals with Alternaria solani. The test can be described thus: Fungicidal activity against Alternaria solani at 50 ug/ml by growth inhibition method. The arrangement: scale not given: the % may be the effect or the level left.
The subject of a further test is Mycosphaerella arachidis. In words: Fungicidal activity against Mycosphaerella arachidis at 50 ug/ml by growth inhibition method. On the set-up: scale not given: the % may be the effect or the level left.
The next test deals with Cercospora beticola. The test can be described thus: Fungicidal activity against Cercospora beticola at 50 ug/ml by growth inhibition method. The arrangement: scale not given: the % may be the effect or the level left.
Test [2] relates to Tobacco mosaic virus. The test can be described thus: In vitro antiviral activity against Tobacco mosaic virus (TMV) infected tobacco leaves at 100 ug/ml.
The test system of test [3] is Tobacco mosaic virus. The test can be described thus: In vitro antiviral activity against Tobacco mosaic virus (TMV) infected tobacco leaves at 500 ug/ml.
In the next test the test system is Phytophthora infestans. In words: Fungicidal activity against Phytophthora infestans at 50 ug/ml by growth inhibition method. On the set-up: scale not given: the % may be the effect or the level left.
For another test, the system named is Rhizoctonia solani. In words: Fungicidal activity against Rhizoctonia solani at 50 ug/ml by growth inhibition method. The arrangement: scale not given: the % may be the effect or the level left.
The subject of a further test is Colletotrichum lagenaria. In words: Fungicidal activity against Colletotrichum lagenaria at 50 ug/ml by growth inhibition method. On the set-up: scale not given: the % may be the effect or the level left.

Take `Cc1ccc(N(C(=O)c2snnc2C)C(C(=O)NC2CCCCC2)c2ccccc2F)cc1F` (configuration not stated): the Activity in the test with Pyricularia grisea was 43%; in the test with Thanatephorus cucumeris, 33%; with Fusarium graminearum, 0%; in test [1], 31%; in the test on Alternaria solani, 38%; in the test on Mycosphaerella arachidis, 29%. For the same molecule, the Activity in the test with Cercospora beticola was determined as 0%; with Phytophthora infestans, 41%; with Rhizoctonia solani it was 49%; in the test with Colletotrichum lagenaria it was 42%. Besides, the inhibition (in general, the percentage by which the read-out fell short of the control) at 100 µg/mL with Tobacco mosaic virus [2] turned out to be 22%. The molecule further had an inhibition at 500 µg/mL in the test with Tobacco mosaic virus [3] of 23%.
Take `Cc1ccc(N(C(=O)c2snnc2C)C(C(=O)NC2CCCCC2)c2cccc([N+](=O)[O-])c2)cc1Cl` (configuration not stated): the Activity is recorded as 0% in the test with Pyricularia grisea; 20% with Thanatephorus cucumeris; 12% with Fusarium graminearum; 19% in test [1]; 38% with Alternaria solani; 57% in the test with Mycosphaerella arachidis. The Activity is recorded as 0% in the test on Cercospora beticola, 41% in the test with Phytophthora infestans, 40% in the test with Rhizoctonia solani and 26% in the test on Colletotrichum lagenaria. The molecule further had an inhibition at 100 µg/mL in the test with Tobacco mosaic virus [2] of 11%. The molecule also yielded an inhibition at 500 µg/mL in the test with Tobacco mosaic virus [3] of 9%.
Regarding `Cc1ccc(N(C(=O)c2snnc2C)C(C(=O)NC2CCCCC2)c2cccc(F)c2)cc1F` (configuration not stated), the Activity was 0% in the test with Pyricularia grisea; 0% with Thanatephorus cucumeris; 38% in the test on Fusarium graminearum; 0% in test [1]; 0% in the test on Alternaria solani; 21% with Mycosphaerella arachidis. The Activity with Cercospora beticola came out at 17%; with Phytophthora infestans it was 5%; in the test on Rhizoctonia solani, 42%; in the test with Colletotrichum lagenaria, 5%. Besides, at 100 µg/mL the inhibition in the test on Tobacco mosaic virus [2] was 9%. Besides, the inhibition at 500 µg/mL in the test with Tobacco mosaic virus [3] amounted to 29%.
For `Cc1ccc(N(C(=O)c2snnc2C)C(C(=O)NC2CCCCC2)c2ccccc2F)cc1Cl` (configuration not stated), the Activity in the test with Pyricularia grisea was 14%; with Thanatephorus cucumeris, 33%; in the test with Fusarium graminearum, 46%; in test [1], 30%; in the test on Alternaria solani, 38%; in the test with Mycosphaerella arachidis it was 43%. In addition, the Activity in the test with Cercospora beticola worked out at 16%; with Phytophthora infestans it was 35%; in the test on Rhizoctonia solani, 49%; with Colletotrichum lagenaria, 47%. The inhibition at 100 µg/mL with Tobacco mosaic virus [2] amounted to 18%. Further, the inhibition at 500 µg/mL in the test with Tobacco mosaic virus [3] is 24%.
For the molecule `Cc1ccc(C(C(=O)NC2CCCCC2)N(C(=O)c2snnc2C)c2ccc(C)c(F)c2)cc1` (configuration not stated), the Activity in the test with Pyricularia grisea stood at 29%; in the test on Thanatephorus cucumeris, 0%; with Fusarium graminearum, 28%; in [1] it was 0%; in the test on Alternaria solani, 0%; in the test on Mycosphaerella arachidis it was 14%. For the same molecule, the Activity in the test with Cercospora beticola amounted to 17%; in the test with Phytophthora infestans, 5%; in the test with Rhizoctonia solani it was 33%; in the test on Colletotrichum lagenaria, 0%. The molecule further gave an inhibition at 100 µg/mL in the test on Tobacco mosaic virus [2] of 52%. The molecule also gave an inhibition at 500 µg/mL in the test with Tobacco mosaic virus [3] of 36%.
For `Cc1ccc(N(C(=O)c2snnc2C)C(C(=O)NC2CCCCC2)c2cccc(Cl)c2)cc1F` (configuration not stated), the Activity with Pyricularia grisea turned out to be 29%; in the test with Thanatephorus cucumeris it was 28%; in the test with Fusarium graminearum, 27%; in [1], 8%; in the test on Alternaria solani, 25%; with Mycosphaerella arachidis, 14%. Also, the Activity in the test on Cercospora beticola stood at 13%; with Phytophthora infestans it was 29%; in the test on Rhizoctonia solani it was 34%; in the test on Colletotrichum lagenaria it was 16%. The same molecule displayed an inhibition at 100 µg/mL in the test on Tobacco mosaic virus [2] of 15%. The inhibition at 500 µg/mL in the test on Tobacco mosaic virus [3] was determined as 39%.
With `Cc1ccc(N(C(=O)c2snnc2C)C(C(=O)NC2CCCCC2)c2ccccc2Cl)cc1F` (configuration not stated), the Activity worked out at 14% in the test with Pyricularia grisea; 22% in the test on Thanatephorus cucumeris; 23% in the test with Fusarium graminearum; 31% in test [1]; 19% in the test on Alternaria solani; 29% in the test on Mycosphaerella arachidis. For the same molecule, the Activity in the test on Cercospora beticola worked out at 0%; in the test with Phytophthora infestans it was 47%; with Rhizoctonia solani, 37%; in the test on Colletotrichum lagenaria, 26%. The inhibition at 100 µg/mL with Tobacco mosaic virus [2] turned out to be 21%. The same molecule gave an inhibition at 500 µg/mL with Tobacco mosaic virus [3] of 23%.
Turning to `Cc1ccc(N(C(=O)c2snnc2C)C(C(=O)NC2CCCCC2)c2ccc(Cl)cc2)cc1F` (configuration not stated), the Activity stood at 43% in the test with Pyricularia grisea; 22% in the test with Thanatephorus cucumeris; 12% with Fusarium graminearum; 23% in [1]; 38% in the test with Alternaria solani; 0% with Mycosphaerella arachidis. Further, the Activity in the test with Cercospora beticola came to 0%; in the test with Phytophthora infestans, 24%; with Rhizoctonia solani it was 43%; in the test with Colletotrichum lagenaria it was 37%. Moreover, the inhibition at 100 µg/mL in the test on Tobacco mosaic virus [2] amounted to 28%. Moreover, the inhibition at 500 µg/mL in the test on Tobacco mosaic virus [3] stood at 30%.
As to `Cc1ccc(N(C(=O)c2snnc2C)C(C(=O)NC2CCCCC2)c2ccc(Cl)cc2)cc1Cl` (configuration not stated), the Activity amounted to 29% in the test with Pyricularia grisea; 50% with Thanatephorus cucumeris; 35% in the test on Fusarium graminearum; 27% in test [1]; 38% in the test with Alternaria solani; 29% in the test with Mycosphaerella arachidis. In addition, the Activity in the test on Cercospora beticola is recorded as 0%; in the test with Phytophthora infestans it was 41%; in the test on Rhizoctonia solani, 40%; in the test on Colletotrichum lagenaria it was 32%. Further, in the test on Tobacco mosaic virus [2], testing at 100 µg/mL gave an inhibition of 38%. At 500 µg/mL the inhibition with Tobacco mosaic virus [3] was 29%.
As for `Cc1ccc(N(C(=O)c2snnc2C)C(C(=O)NC2CCCCC2)c2ccccc2[N+](=O)[O-])cc1F` (configuration not stated), the Activity in the test with Pyricularia grisea is recorded as 0%; with Thanatephorus cucumeris, 0%; with Fusarium graminearum it was 41%; in [1], 0%; in the test with Alternaria solani, 0%; in the test on Mycosphaerella arachidis, 21%. For the same molecule, the Activity in the test with Cercospora beticola turned out to be 67%; in the test on Phytophthora infestans, 5%; in the test with Rhizoctonia solani, 37%; in the test on Colletotrichum lagenaria, 5%. The same molecule gave an inhibition at 100 µg/mL in the test on Tobacco mosaic virus [2] of 17%. The same molecule showed an inhibition at 500 µg/mL in the test with Tobacco mosaic virus [3] of 29%.
Take `Cc1ccc(N(C(=O)c2snnc2C)C(C(=O)NC2CCCCC2)c2ccccc2C)cc1Cl` (configuration not stated): the Activity in the test on Pyricularia grisea is listed as 0%; in the test with Thanatephorus cucumeris it was 43%; with Fusarium graminearum, 23%; in test [1], 35%; in the test on Alternaria solani, 56%; in the test with Mycosphaerella arachidis, 14%. Besides, the Activity was 0% in the test on Cercospora beticola, 35% with Phytophthora infestans, 43% with Rhizoctonia solani and 37% in the test with Colletotrichum lagenaria. The same molecule had an inhibition at 100 µg/mL with Tobacco mosaic virus [2] of 38%. Besides, the inhibition at 500 µg/mL with Tobacco mosaic virus [3] came to 42%.
Turning to `Cc1cccc(C(C(=O)NC2CCCCC2)N(C(=O)c2snnc2C)c2ccc(C)c(F)c2)c1` (configuration not stated), the Activity with Pyricularia grisea was 0%; with Thanatephorus cucumeris it was 0%; in the test with Fusarium graminearum, 34%; in [1] it was 0%; in the test on Alternaria solani, 0%; in the test on Mycosphaerella arachidis it was 21%. In addition, the Activity came out at 33% with Cercospora beticola, 0% with Phytophthora infestans, 28% in the test on Rhizoctonia solani and 0% in the test with Colletotrichum lagenaria. The molecule further came in with an inhibition at 100 µg/mL in the test on Tobacco mosaic virus [2] of 18%. This molecule yielded an inhibition at 500 µg/mL in the test on Tobacco mosaic virus [3] of 29%.
For `Cc1ccc(N(C(=O)c2snnc2C)C(C(=O)NC2CCCCC2)c2ccc(C(F)(F)F)cc2)cc1F` (configuration not stated), the Activity in the test on Pyricularia grisea amounted to 14%; in the test with Thanatephorus cucumeris, 6%; in the test with Fusarium graminearum, 24%; in [1], 0%; in the test with Alternaria solani, 0%; with Mycosphaerella arachidis, 57%. The Activity is reported as 50% with Cercospora beticola, 0% in the test with Phytophthora infestans, 35% in the test on Rhizoctonia solani and 5% in the test with Colletotrichum lagenaria. The same molecule showed an inhibition at 100 µg/mL in the test with Tobacco mosaic virus [2] of 10%. This molecule also returned an inhibition at 500 µg/mL in the test with Tobacco mosaic virus [3] of 25%.
Take `Cc1ccc(N(C(=O)c2snnc2C)C(C(=O)NC2CCCCC2)c2ccc(F)cc2)cc1F` (configuration not stated): the Activity worked out at 14% with Pyricularia grisea; 17% in the test with Thanatephorus cucumeris; 8% in the test with Fusarium graminearum; 19% in [1]; 44% with Alternaria solani; 43% with Mycosphaerella arachidis. Moreover, the Activity with Cercospora beticola is 0%; with Phytophthora infestans, 29%; with Rhizoctonia solani it was 40%; with Colletotrichum lagenaria, 26%. The molecule further gave an inhibition at 100 µg/mL in the test on Tobacco mosaic virus [2] of 40%. Besides, at 500 µg/mL the inhibition in the test with Tobacco mosaic virus [3] was 36%.
`Cc1ccc(N(C(=O)c2snnc2C)C(C(=O)NC2CCCCC2)c2ccccc2C(F)(F)F)cc1Cl` (configuration not stated): the Activity with Pyricularia grisea came out at 43%; in the test with Thanatephorus cucumeris, 33%; with Fusarium graminearum, 12%; in test [1], 46%; in the test on Alternaria solani, 38%; in the test on Mycosphaerella arachidis it was 29%. Further, the Activity in the test with Cercospora beticola was found to be 0%; in the test with Phytophthora infestans it was 41%; with Rhizoctonia solani, 60%; in the test with Colletotrichum lagenaria, 53%. The same molecule yielded an inhibition at 100 µg/mL in the test on Tobacco mosaic virus [2] of 18%. The same molecule returned an inhibition at 500 µg/mL in the test with Tobacco mosaic virus [3] of 38%.
As to `Cc1ccc(N(C(=O)c2snnc2C)C(C(=O)NC2CCCCC2)c2ccc(C(F)(F)F)cc2)cc1Cl` (configuration not stated), the Activity with Pyricularia grisea is reported as 14%; with Thanatephorus cucumeris, 22%; in the test with Fusarium graminearum, 19%; in test [1], 19%; in the test on Alternaria solani it was 31%; in the test on Mycosphaerella arachidis, 57%. In addition, the Activity in the test on Cercospora beticola amounted to 0%; with Phytophthora infestans it was 29%; in the test on Rhizoctonia solani, 37%; in the test with Colletotrichum lagenaria it was 16%. The inhibition at 100 µg/mL in the test with Tobacco mosaic virus [2] worked out at 11%. The molecule further displayed an inhibition at 500 µg/mL with Tobacco mosaic virus [3] of 34%.
